Experimental data: PMC12124432, “Antimicrobial Peptide‐Peptoid Macrocycles from the Polymyxin B2 Chemical Space” (Angewandte Chemie (International Ed. in English), 2025)
Bridge positions count the residues as written; N and C are the ends. Square brackets hold non-standard residues; d marks the D form. Peptide text beside a SMILES is read from it. * marks the point of attachment. N(3-phenylpropyl)Gly = O=C(O)CNCCCc1ccccc1; Gly(NCH2CH2Ph) = O=C(O)CNCCc1ccccc1; Gly(N-2-aminoethyl) = NCCNCC(=O)O; Gly(N(CH2)3NH2) = NCCCNCC(=O)O; Heptanoyl = CCCCCCC(=O)*; Octanoyl = CCCCCCCC(=O)*; Dab = NCC[C@H](N)C(=O)O; NPrGly = CCCNCC(=O)O

Test system: P. aeruginosa PAO1
Assay: Transmission electron microscopy (TEM)
Type: cell-based, Pseudomonas aeruginosa
Details: 10 × MIC, 12.5% MH, 2 h incubation at 37 °C, OD600 = 0.5
Protocol: Specific Fluorescence Enhacement
Concentration of Dansyl-PMB (μM)
Figure S9. Extracted data from the specific fluorescence enhancement data (Figure S8) from DsPMB at 485 nm. The plateau is reached at approximately 2.5 µM. Each data point represent mean ± SD, n =3.
15. Transmission Electron Microscopy (TEM)
Transmission electron microscopy was evaluated at a high cell density (10^8 CFU) and a concentration (10x MIC) that killed the bacteria, but not all of them. An overnight culture of P. aeruginosa PAO1 was regrown until exponential phase (1 mL, OD600 = 0.5) in 12.5% MH medium pH 7.4, treated with the compounds, in diluted MH medium (at pH 7.4) and incubated for 2 hours at 37 °C. Just before the samples were further prepared for the microscopy, surviving bacteria were quantified by plating 10-fold dilutions of samples in sterilized normal saline (NaCl 0.9 %) on LB agar plates. LB agar plates were incubated at 37 °C for 10 hours and the number of individual colonies was counted at each time-point, to monitor partial bacteria killing. The assay was performed in triplicates. Each bacteria sample was centrifuged at 12’000 rpm for 3 min and the supernatant was discarded. The samples were fixed overnight with 2.5% glutaraldehyde (Agar Scientific, Stansted, Essex, UK) in 0.15 M HEPES (Fluka, Buchs, Switzerland) with an osmolarity of 630 mOsm and adjusted to a pH of 7.44. […]

CCCCCCCC(=O)N(CCc1ccccc1)CC(=O)N[C@@H](CCCCN)C(=O)N[C@@H](CC(N)=O)C(=O)N[C@H]1CCNC(=O)[C@H](CCCCN)NC(=O)CN(CCCN)C(=O)[C@H](CCCCN)NC(=O)CN(CCC)C(=O)[C@H](CCCCN)NC1=O [EB12] (Octanoyl-[Gly(NCH2CH2Ph)]KN[Dab]K[NPrGly]K[Gly(N(CH2)3NH2)]K; lactam 4-C) was tested, and the “TEM pattern of treated P. aeruginosa cells” value was “aggregation of intracellular contents”.

CCCCCCC(=O)N[C@H](C(=O)N(CCN)CC(=O)N(CCCc1ccccc1)CC(=O)N[C@H]1CCNC(=O)[C@H](CCCCN)NC(=O)CN(CCCN)C(=O)[C@H](CCCCN)NC(=O)CNC(=O)[C@H](CCCCN)NC1=O)C(C)C [EB13] (Heptanoyl-V[Gly(N-2-aminoethyl)][N(3-phenylpropyl)Gly][Dab]KGK[Gly(N(CH2)3NH2)]K; lactam 4-C) was tested, and the “TEM pattern of treated P. aeruginosa cells” value was “aggregation of intracellular contents”.
